The source of these data is patent US20140018537A1, “GPR119 AGONIST” (NIPPON CHEMIPHAR CO., LTD., priority 2008, published 2014).

The target in data set [1] is T1, human GPR119 (Homo sapiens, UniProt Q8TDV5).
T1 construct: expressed in transfected cells
T1 sequence (Q8TDV5 1-335): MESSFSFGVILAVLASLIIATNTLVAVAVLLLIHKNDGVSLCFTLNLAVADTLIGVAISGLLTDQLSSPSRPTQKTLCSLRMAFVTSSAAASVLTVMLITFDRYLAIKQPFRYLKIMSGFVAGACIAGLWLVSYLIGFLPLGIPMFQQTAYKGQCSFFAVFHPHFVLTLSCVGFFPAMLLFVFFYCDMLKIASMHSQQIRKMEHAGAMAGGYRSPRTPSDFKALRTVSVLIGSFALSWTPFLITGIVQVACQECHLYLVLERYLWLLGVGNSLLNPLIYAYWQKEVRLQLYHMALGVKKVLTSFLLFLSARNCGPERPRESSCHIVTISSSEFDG
In words: Intracellular cAMP increase in human GPR119 introduced cells (HitHunter cAMP XS+ Assay). Type of data set: cell-based. Conditions: for EC50: hGPR119 stable cells, intracellular cAMP; for GPR119 agonist effect (in words): hGPR119 introduced cells, cAMP. The source says:
The GPR119 agonist effect was studied by measuring the effect of an analyte on increase of intracellular amount of cAMP in human GPR119 introduced cells. The testing method is described below.
(1) Construction of the Stable Cell Line Expressing Human G Protein-Coupled-Receptor 119 (hGPR119) Human GPR119 gene (NM 178471) is purchased from American Type Culture Collection (ATCC No. 10807349). Hind III site-added forward side primer ([…]: sequence No. 1) and Apa I site-added reverse side primer ([…]: sequence No. 2) are designed. The target gene is amplyfied by a polymerase chain reaction (PCR) method using KOD-Plus-Ver. 2 (TOYOBO #KOD-211). PCR is conducted by repeating three steps consisting of the step of 98° C.-10 seconds, the step of 55° C.-30 seconds, and the step of 68° C.-1 minute and 10 seconds in 35 cycles. The amplified PCR product is inserted into pcDNA5/FRT/TO (Invitrogen #V6520-20) plasmid. Cells, which can constantly express the target gene with tetracycline, are constructed using Flp-In T-REx-systen (invitorogen).
(2) Measurement of Intracellular Cyclic Adenosine Monophosphate (cAMP)
The hGPR119 introduced cells prepared in (1) are plated on a 96-well plate using Dulbecco's Modified Eagle Medium containing heat-inactived 10% fetal bovine serum. After incubation of 24 hours, tetracyclin (invitrogen #Q10019) is added to the culture medium to induce hGPR119 gene expression. After further incubation of 24 hours, the cells are stimulated with 0.5 mM 3-ISOBUTYL-1-METHYLXANTHINE (Sigma #17018) phosphate buffer containing the analyte at 37° C. for 30 minutes. The amount of the intracellular cAMP is measured by using FLUOstar Optima (BMG LABTECH) according to the protocol of HitHunter™ cAMP XS+Assay (GE Healthcare #90007503) to give the agonist activity of the analyte to the GPR119 receptor.
(1) Construction of the Stable Cell Line Expressing Human G-Protein Coupled Receptor 119 (hGPR119) hGPR119 gene (NM 178471) was purchased from American Type Culture Collection (ATCC No. 10807349). The forward primer that was added a HindIII site ([…] (sequence number 1)), and the reverse primer that was added an ApaI site ([…] (sequence number 2)) were designed, the target gene was amplified by polymerase chain reaction (PCR) using a KOD-Plus-Ver.2 (TOYOBO #KOD-211). PCR was repeated 3 steps (98° C. for 10 sec, 55° C. for 30 sec, 68° C. for 1 min 15 sec) by 35 cycles. Amplified PCR product was inserted in pcDNA5/FRT/TO (Invitrogen #V6520-20), and the stable cell line that expresses target gene when induced with tetracycline was created using the Flp-In T-Rex system (Invitrogen).
(2) Measuring Method of Intracellular Cyclic Adenosine Monophosphate (cAMP) hGPR119 stable cells made by above-mentioned (1) were plated on 96 well plates in Dulbecco's Modified Eagle Medium containing 10% heat-inactivated FBS. After 24 hours, the hGPR119 expression was induced by adding medium containing tetracycline (Invitrogen #Q10019) and incubating for another 24 hours. Following incubation, cells were stimulated by 0.5 mM 3-ISOBUTYL-1-METHYLXANTHINE (Sigma #17018) phosphate buffered saline containing test compound for 30 minutes at 37° C. Agonist activity of test compound to the GPR119 receptor was estimated by measuring the intracellular cAMP concentration using a Fluostar optima plate reader (BMG LABTECH) according to the manufacturer's protocol of the HitHunter™ cAMP XS+Assay (GE Healthcare #90007503).
The examination was performed by the method similar to Example 86 (Pharmacological experiment 1)-(1), -(2).

The subject of data set [2] is normal mice. Kind of data set: Oral glucose tolerance test in normal mice. Type of data set: in vivo. As to the method: Oral glucose tolerance is tested in normal mice.
In this experiment, the inhibitory effect of an analyte on glycemic excursions is examined after glucose administration in normal mice. The test methods are described below.
Male 9-week-old ICR mice, habituated to the experimental environment for two weeks, are fasted for 18 hours and used to this experiment. Mice are orally administered the analyte or vehicle (polyethylene glycol 400:ethanol:Tween 80=8:1:1). After 30 minutes, they were orally given glucose at the dose of 3 g/kg.
Blood was collected at just before the analyte or vehicle administration (−30 minutes), immediately before glucose challenge (0 minute), 20 minutes, 40 minutes, 60 minutes, and 120 minutes after glucose ingestion to determine blood glucose levels.
Inhibition rate (%) of the analyte versus vehicle in areas under the glycemic excursion curve between 0 and 120 min after glucose challenge is determined.
Oral Glucose Tolerance Test in Normal Mice […]
Blood was collected at just before the test compound or vehicle administration (−30 min), immediately before glucose challenge (0 min), 20 min, 40 min, 60 min and 120 min after glucose ingestion and then blood glucose levels were determined.
Inhibition rate (%) of the test compound versus vehicle in areas under the glycemic excursion curve between 0 and 120 min after glucose challenge was determined.

Setting [3] is: Table 16, tetracycline-induced, 30 minutes at 37° C.
[4] abbreviates: Table 17, method similar to Example 86.

A word on the EC50: it is the concentration that produces a half-maximal response. A high value points to a need for much substance. Broadly, the melting point is the temperature, or range, at which the solid turns liquid. With `CC(C)(C)OC(=O)N1CCC(c2ccc(COc3ccc(S(C)(=O)=O)cc3)cn2)CC1` [Example 2, tert-Butyl 4-[5-(4-methanesulfonylphenoxymethyl)pyridin-2-yl]piperidine-1-carboxylate], the melting point was in the range of 140 to 142 °C. Further, the midpoint of the response in data set [1] (setting [3]), the EC50, lay at 606 nM. Further, the “GPR119 agonist effect (in words)” value in data set [1] is listed as “excellent GPR119 agonist effect”. In turn, `CC(C)(C)OC(=O)N1CCC(c2ccc(COc3ccc(NS(C)(=O)=O)cc3)nc2)CC1` [Example 35, tert-Butyl 4-[2-(4-methanesulfonylaminophenoxymethyl)pyridin-5-yl]piperidine-1-carboxylate] gave a melting point of 171 to 173 °C.

In data set [1] (setting [3]), `CC(C)(C)OC(=O)N1CCC(c2ccc(COc3ccc(S(C)(=O)=O)cc3)nc2)CC1` [Example 1, tert-Butyl 4-[2-(4-methanesulfonylphenoxymethyl)pyridin-5-yl]piperidine-1-carboxylate] came in with an EC50 of 26.8 nM. In addition, in data set [1], the “GPR119 agonist effect (in words)” value is “excellent GPR119 agonist effect”. Also, the “Inhibition rate (%)” value in data set [2] (10 mg/kg oral, male ICR mice, glucose 3 g/kg 30 min later, area under glycemic excursion curve 0-120 min versus vehicle) was 41.8%. Also, the “inhibitory effect on glycemic excursions (in words)” value in data set [2] (oral glucose tolerance test of normal mice) is given as “strong inhibitory effect”. As to `Cc1cc(C2CCN(C(=O)OC(C)(C)C)CC2)cnc1COc1ccc(S(C)(=O)=O)cc1Cl` [Example 80, tert-Butyl 4-[2-(2-chloro-4-methanesulfonylphenoxymethyl)-3-methylpyridin-5-yl]piperidine-1-carboxylate], the melting point fell in the range of 143 to 145 °C. The same compound yielded an EC50 in data set [1] (setting [4]) of 65.9 nM.

`Cc1cc(C2CCN(C(=O)OC(C)(C)C)CC2)cnc1COc1ccc(S(C)(=O)=O)cc1` [Example 63, tert-Butyl 4-[2-(4-methanesulfonylphenoxymethyl)-3-methylpyridin-5-yl]piperidine-1-carboxylate] came in with a melting point of 130 to 132 °C. Moreover, in data set [1] (setting [4]), the EC50 was found to be 28.4 nM.

On to `CCCCCc1cnc(N2CCC(c3ccc(COc4ccc(S(C)(=O)=O)cc4)nc3)CC2)nc1` [Example 50, 2-[4-[2-(4-Methanesulfonylphenoxymethyl)pyridin-5-yl]piperidin-1-yl]-5-pentylpyrimidine], for which the melting point lay within 154 to 157 °C. Still for that read-out and setting: the same measure for `CCCc1cnc(N2CCC(c3ccc(COc4ccc(S(C)(=O)=O)cc4)nc3)CC2)nc1` [Example 49, 2-[4-[2-(4-Methanesulfonylphenoxymethyl)pyridin-5-yl]piperidin-1-yl]-5-propylpyrimidine]: 164 to 166 °C.

As to `CCc1cnc(N2CCC(c3ccc(COc4ccc(C#N)c(F)c4)nc3)CC2)nc1` [Example 52, 2-[4-[2-(4-Cyano-3-fluorophenoxymethyl)pyridin-5-yl]piperidin-1-yl]-5-ethylpyrimidine], the melting point fell in the range of 129 to 131 °C. Still for that read-out and setting: to `CCCCCc1cnc(N2CCC(c3ccc(COc4ccc(C#N)c(F)c4)nc3)CC2)nc1` [Example 54, 2-[4-[2-(4-Cyano-3-fluorophenoxymethyl)pyridin-5-yl]piperidin-1-yl]-5-pentylpyrimidine] belongs 92 to 94 °C. The compound `CCc1cnc(N2CCC(c3ccc(COc4ccc(S(C)(=O)=O)cc4)nc3)CC2)nc1` [Example 48, 5-Ethyl-2-[4-[2-(4-methanesulfonylphenoxymethyl)pyridin-5-yl]piperidin-1-yl]pyrimidine] showed a melting point of 185 to 187 °C. This compound gave an EC50 in data set [1] (setting [4]) of 137 nM. Regarding `COc1cc(C2CCN(C(=O)OC(C)(C)C)CC2)cnc1COc1ccc(S(C)(=O)=O)cc1` [Example 67, tert-Butyl 4-[2-(4-methanesulfonylphenoxymethyl)-3-methoxypyridin-5-yl]piperidine-1-carboxylate], the melting point lay in the range of 153 to 154 °C. On to `CC(C)(C)OC(=O)N1CCC(c2ccc(COc3ccc(-n4cncn4)cc3)nc2)CC1` [Example 16, tert-Butyl 4-[2-[4-(1,2,4-triazol-1-yl)phenoxymethyl]pyridin-5-yl]piperidine-1-carboxylate], for which the melting point was in the range of 147 to 150 °C. Moreover, the EC50 in data set [1] (setting [4]) came out at 129 nM.

Take `CCOC(=O)N1CCC(c2ccc(COc3ccc(S(C)(=O)=O)cc3)nc2)CC1` [Example 43, Ethyl 4-[2-(4-methanesulfonylphenoxymethyl)pyridin-5-yl]piperidine-1-carboxylate]: the melting point is 119 to 121 °C.

As to `CCOC(=O)c1ccc(OCc2ccc(C3CCN(C(=O)OC(C)(C)C)CC3)cn2)cc1F` [Example 9, tert-Butyl 4-[2-(4-ethoxycarbonyl-3-fluorophenoxymethyl)pyridin-5-yl]piperidine-1-carboxylate], the melting point lay in the range of 92 to 95 °C. For the compound `CCC(C)(C)OC(=O)N1CCC(c2ccc(COc3ccc(S(C)(=O)=O)cc3)nc2)CC1` [Example 41, 1,1-Dimethylpropyl 4-[2-(4-methanesulfonylphenoxymethyl)pyridin-5-yl]piperidine-1-carboxylate], the melting point was 114 to 115 °C. Further, the EC50 in data set [1] (setting [4]) was found to be 114 nM. In turn, `CC(C)c1nc(N2CCC(c3ccc(COc4ccc(S(C)(=O)=O)cc4)nc3)CC2)no1` [Example 8, 5-[1-(5-Isopropyl-1,2,4-oxadiazol-3-yl)piperidin-4-yl]-2-(4-methanesulfonylphenoxymethyl)pyridine] came in with a melting point of 143 to 145 °C. The compound further gave a half-maximal effective concentration (EC50) in data set [1] (setting [4]) of 137 nM.
